Experiment [1] deals with T1, Interferon-induced, double-stranded RNA-activated protein kinase (Homo sapiens, UniProt P19525). The experiment is described as follows: Inhibition of GST tagged human PKR incubated for 10 mins in presence of ATP by Kinase Glo luminescence assay.
Experiment [2] deals with T1, Interferon-induced, double-stranded RNA-activated protein kinase. The experiment is described as follows: Inhibition of PKR (unknown origin).

T1 sequence (P19525 whole entry): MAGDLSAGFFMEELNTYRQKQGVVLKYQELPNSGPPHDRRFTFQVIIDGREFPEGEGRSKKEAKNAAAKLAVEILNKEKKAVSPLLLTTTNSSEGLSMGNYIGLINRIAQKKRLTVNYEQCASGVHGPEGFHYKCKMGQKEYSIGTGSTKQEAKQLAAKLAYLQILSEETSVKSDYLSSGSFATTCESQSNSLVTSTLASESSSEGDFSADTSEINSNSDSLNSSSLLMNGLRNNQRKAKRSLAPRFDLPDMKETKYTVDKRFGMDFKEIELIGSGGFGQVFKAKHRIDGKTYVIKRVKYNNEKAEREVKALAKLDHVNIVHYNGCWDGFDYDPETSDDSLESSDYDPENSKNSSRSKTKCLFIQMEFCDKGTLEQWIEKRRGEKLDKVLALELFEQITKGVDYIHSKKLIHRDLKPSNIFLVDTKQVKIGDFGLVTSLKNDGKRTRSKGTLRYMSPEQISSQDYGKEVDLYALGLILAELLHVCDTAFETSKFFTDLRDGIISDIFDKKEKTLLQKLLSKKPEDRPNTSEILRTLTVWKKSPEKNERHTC

Turning to `Nc1ncc(-c2nnn(CCCO)n2)cc1-c1cc2cc(NC(=O)Nc3ccc(Cl)c(C(F)(F)F)c3)ccc2o1`, in experiment [1], the IC50 is 475 nM.
Consider `CCc1ccc(OC(F)(F)F)cc1CC(=O)N1CCc2cc(-c3nn(CC)c4ncnc(N)c34)ccc21`, for which the half-maximal effective concentration (EC50) in experiment [2] stood at 95 nM. That is a double-digit nanomolar value.
`COCCO[C@H]1CC[C@H](n2nc(-c3ccc(Nc4nc5cc(Cl)cc(F)c5o4)cc3)c3c(N)ncnc32)CC1` displayed a half-maximal inhibitory concentration (IC50) in experiment [2] of 364 nM.
On the same count and under the same terms, as for `CCn1cc(-c2ccc3c(c2)CCN3C(=O)Cc2cccc(OC(F)(F)F)c2)c2c(N)ncnc21`, the figure is 116 nM; as for `O=C(Nc1cc(-c2ccccc2)[nH]n1)c1ccc(N2CCNC2=O)cc1`, 3880 nM; as for `CC(=O)Cn1cc(-c2cnc(N)c3c(-c4ccc(NC(=O)Nc5cccc(C)c5)cc4)csc23)cn1`, 306 nM.
As to `CCc1ccc(OC(F)(F)F)cc1CC(=O)N1CCc2cc(-c3cn(CC)c4ncnc(N)c34)ccc21`, in experiment [2], the EC50 turned out to be 37 nM.

(Values after ChEMBL document CHEMBL5223142, “Identification of potent and selective inhibitors of PKR via virtual screening and traditional design” (Bioorg Med Chem Lett, 2023).)
